Like-named read-outs stand apart in the source and are kept apart here.
Experiments:
[1] = tested on: 4T1 (mouse triple-negative breast cancer cells); assay: Impedance measurement (xCELLigence RTCA, cell index) in 4T1 cells; format: cell-based; settings: 20 μM, 48 h
Procedure: (§1) 4T1 (mouse triple-negative breast cancer cells) were cultured in RPMI (Roswell Park Memorial Institute) 1640 medium supplemented with 5% fetal bovine serum (FBS) (both from Thermo Fisher Scientific, Waltham, MA, USA). MDA-MB-231 (human triple-negative breast cancer cells, abbreviated as MDA) were cultured in DMEM (Dulbecco’s modified Eagle’s medium, Thermo Fisher Scientific) + 5% FBS. D3 (hCMEC/D3 human cerebral microvascular endothelial cells) were kept in rat tail collagen-coated dishes in EBM-2 (endothelial basal medium-2, Lonza, Basel, Switzerland) complemented with 2% FBS and an EGM-2MV kit (Lonza).
(§2) Viability and impedance measurements were performed in the log growth phase of tumor cells and in the stationary phase of endothelial cells.
For impedance measurements, cells were plated in 96-well E-plates having microelectrodes integrated on the bottom (ACEA Biosciences, San Diego, CA, USA) and allowed to attach onto the electrode surface for 48 h. Afterward, cells were treated with the test compounds as described above. Electrical impedance was recorded every 30 min for 48 h using an xCELLigence real-time cell analysis (RTCA) instrument (ACEA Biosciences). Cell index was automatically calculated by the software of the instrument.

[2] = tested on: 4T1 (mouse triple-negative breast cancer cells); assay: MTT viability assay / IC50 determination in 4T1 cells; format: cell-based; settings: for cytotoxic effect on 4T1 cells, MTT assay: 20 μM; for cytotoxic effect on 4T1 cells, MTT assay / cytotoxicity (viability of 4T1 cells), MTT assay: 48 h; for cytotoxicity (viability of 4T1 cells), MTT assay: 10 or 20 μM, Figure S74; for IC50: MTT assay, 48 h treatment, n = 6–8, read-out: IC50 [95% C.I.], 4T1
Procedure: as §1, §2
(§3) For the MTT (3-[4,5-dimethylthiazole-2-yl]-2,5-diphenyltetrazolium bromide) viability assay, cells were plated in 96-well plates (Corning, Corning, NY, USA). The seeding density of the cells was 5000/well (for 4T1 or MDA cells) or 25 000/well (for D3 cells). After 48 h, half of the medium was replaced with serum-free medium, containing the test compounds in a final concentration of 10 or 20 μM. Control wells received solvent (DMSO) in up to a 0.2% concentration. After 48 h, MTT reagent (Sigma-Aldrich, St. Louis, MO, USA) was added to the cells in a final concentration of 2.5 mg/mL. After incubation at 37 °C for 30 min, acidified isopropanol solution was added to each well. Absorbance was measured at 595 nm with a FLUOstar OPTIMA microplate reader (BMG LABTECH, Offenburg, Germany). Doxorubicin was used as a positive control, at a concentration of 10 μM.
(§4) For determining IC50 values, nine-step, 2-fold serial dilutions of the test compounds were applied, starting from 100 μM. Cells were treated for 48 h, and viability was measured with the MTT assay, as described above. Half-maximum inhibitory concentrations (IC50) were calculated via nonlinear dose–response curve fitting by the log(inhibitor) vs response (variable slope) model of GraphPad Prism 5.01 (GraphPad Software, San Diego, CA, USA) by using automatic outlier elimination at Q = 1.0.

[3] = tested on: D3 (hCMEC/D3 human cerebral microvascular endothelial cells); assay: MTT viability assay / IC50 determination in D3 endothelial cells; format: cell-based; settings: for cytotoxicity (viability of D3 cells), MTT assay: 10 or 20 μM, 48 h, Figure S74; for IC50: MTT assay, 48 h treatment, n = 6–8, read-out: IC50 [95% C.I.], D3
Procedure: as §1, §2, §3, §4

[4] = tested on: MDA-MB-231 (human triple-negative breast cancer cells); assay: MTT viability assay / IC50 determination in MDA-MB-231 cells; format: cell-based; settings: for cytotoxicity (viability of MDA cells), MTT assay: 10 or 20 μM, 48 h, Figure S74; for IC50: MTT assay, 48 h treatment, n = 6–8, read-out: IC50 [95% C.I.], MDA-MB-231
Procedure: as §1, §2, §3, §4

[5] = tested on: A2780 human ovarian cancer cells; parameters: method as in Bús et al. 8; settings: ref Bús et al. 8; cited from earlier work
[6] = tested on: HeLa cervical cancer cells; parameters: method as in PMID 31005716; settings: cited from earlier work

Molecule	cytotoxic effect on 4T1 cells, impedance measurements (cell index) [1]	cytotoxic effect on 4T1 cells, MTT assay [2]	cytotoxicity (viability of D3 cells), MTT assay [3]	cytotoxicity (viability of MDA cells), MTT assay [4]	cytotoxicity (viability of 4T1 cells), MTT assay [2]	further results
Cc1c(O)ccc2c1CCc1cc(O)cc(C=O)c1-2 [2,7-dihydroxy-5-formyl-1-methyl-9,10-dihydrophenanthrene]	not cytotoxic	not cytotoxic	–	–	–	–
Cc1c(O)ccc2c1CCc1cc(O)cc(CO)c1-2 [2,7-dihydroxy-5-hydroxymethyl-1-methyl-9,10-dihydrophenanthrene]	not cytotoxic	not cytotoxic	–	–	–	–
C=Cc1cc(O)cc2c1-c1ccc(OC)c(C)c1CC2 [7-hydroxy-2-methoxy-1-methyl-5-vinyl-9,10-dihydrophenanthrene]	not cytotoxic	not cytotoxic	–	–	–	–
Cc1c(O)ccc2c1CCc1cc(O)cc(C3CC=Cc4c5c(cc(O)c43)CCc3c-5ccc(O)c3C)c1-2 (stereo not drawn) [Compound 9, Gerardiin I]	–	–	cytotoxic	cytotoxic	cytotoxic	IC50 ([3]; Homo sapiens, hCMEC/D3): 21.6 µM; IC50 ([4]; Homo sapiens, MDA-MB-231, 48 h): < 10 µM; IC50 [4]: 8 µM; IC50 [2]: 7.8 µM; IC50 ([2]; Mus musculus, 4T1, 48 h): < 10 µM
C=Cc1cc(O)c(Cc2c(O)cc(C=C)c3c2ccc2c(C)c(O)ccc23)c2c1-c1ccc(O)c(C)c1CC2 [Compound 12, Gerardiin L]	–	–	cytotoxic	cytotoxic	cytotoxic	IC50 ([3]; Homo sapiens, hCMEC/D3): 13.7 µM; IC50 ([4]; Homo sapiens, MDA-MB-231, 48 h): 7.3 µM; IC50 [2]: > 10 µM; IC50 ([2]; Mus musculus, 4T1, 48 h): 11.7 µM
C=Cc1cc(O)cc2c1-c1ccc(O)c(C)c1CC2 [Compound 13, effusol]	–	–	no or very low cytotoxicity	no or very low cytotoxicity	no or very low cytotoxicity	–
C=Cc1cc(O)cc2ccc3c(C)c(O)ccc3c12 [Compound 14, dehydroeffusol]	–	–	no or very low cytotoxicity	no or very low cytotoxicity	no or very low cytotoxicity	–
C=Cc1cc(O)cc2c1-c1cc(-c3cc4c(c(C)c3O)CCc3cc(O)cc(C=C)c3-4)c(O)c(C)c1CC2 [Compound 15, Effususin A]	–	–	cytotoxic	cytotoxic	cytotoxic	toxicity in A2780 human ovarian cancer cells [5]: moderate toxicity
C=Cc1c(C)c(O)cc2c1-c1ccc(OC)c(C)c1CC2 [compressin A]	not cytotoxic	not cytotoxic	–	–	–	–
COc1cccc2c1C(=O)c1c(O)c3c(c(O)c1C2=O)C[C@@](O)(C(=O)CO)C[C@@H]3O[C@H]1C[C@H](N)[C@H](O)[C@H](C)O1 [doxorubicin, reference compound]	–	–	–	–	–	IC50 ([3]; Homo sapiens, hCMEC/D3): 0.8 µM; IC50 ([4]; Homo sapiens, MDA-MB-231, 48 h): 0.8 µM; IC50 ([2]; Mus musculus, 4T1, 48 h): 3.4 µM
COC(C)c1cc(O)cc2c1-c1ccc(O)c(C)c1CC2 (stereo not drawn) [effususol A]	not cytotoxic	not cytotoxic	–	–	–	–
C=C[C@@]1(C)C(=O)C2=C(C[C@H]1O)c1ccc(O)c(C)c1CC2 [jinflexin C]	moderate cytotoxicity	–	–	–	–	–
C=Cc1c(C)c(O)cc2c1-c1ccc(O)c(C)c1CC2 [juncusol]	moderate cytotoxicity	moderate cytotoxicity	–	–	–	antiproliferative activity against HeLa cervical cancer cells [6]: antiproliferative activity
Gerardiin J [Compound 10]	–	–	cytotoxic	cytotoxic	cytotoxic	IC50 [3]: 15.7 µM; IC50 [4]: 6.6 µM; IC50 [2]: 5.6 µM
Gerardiin K [Compound 11]	–	–	cytotoxic	cytotoxic	cytotoxic	IC50 [3]: 10.6 µM; IC50 [4]: > 10 µM; IC50 [2]: 8.1 µM

— article PMC7660940, “Gerardiins A–L and Structurally Related Phenanthrenes from the Halophyte Plant Juncus gerardii and Their Cytotoxicity against Triple-Negative Breast Cancer Cells” (Journal of Natural Products, 2020)
